Assay results: patent publication EP4656640A1, “IRAK4 DEGRADER AND USE THEREOF” (Shanghai Qilu Pharmaceutical Research and Development …, priority 2023, dated 2024)
Like-named read-outs stand apart in the source and are kept apart here.

How the values were obtained:
[1] = biological target: hERG potassium channel (Homo sapiens, UniProt Q12809); test: Inhibition of hERG potassium channel, whole-cell manual patch clamp in CHO-hERG cells; settings: @ 1 µM test compound
Description: The effects of compounds on hERG potassium channel (human Ether-a-go-go Related Gene potassium channel) currents were tested using the whole-cell manual voltage-clamp electrophysiological method.
CHO cells stably expressing hERG were cultured in cell culture dishes with a diameter of 35 mm and incubated at 37°C in a 5% CO2 incubator. The cells were passaged at a ratio of 1:5 every 48 hours. The culture medium was formulated as follows: 90% F12 (Invitrogen), 10% fetal bovine serum (Gibco), 100 g/mL G418 (Invitrogen), and 100 g/mL Hygromycin B (Invitrogen). On the day of the experiment, the cell culture medium was aspirated, and the cells were rinsed once with extracellular solution. […] The digestion solution was aspirated, and the cells were resuspended in extracellular solution and then transferred to experimental dishes for electrophysiological recording for later use.
On the day of testing, the compounds were prepared as 10 mM stock solutions in DMSO, then diluted to 1 mM with DMSO, and further diluted 1000-fold with extracellular solution to obtain the desired final test concentration.
hERG potassium channel currents were recorded at room temperature using the whole-cell patch-clamp technique in CHO cells stably expressing the hERG channel. The glass microelectrode was prepared by pulling the glass electrode blank (BF150-86-10, Sutter) with a puller, and the tip resistance after filling with the internal electrode solution was about 2-5 MΩ. The glass microelectrode was inserted into the amplifier probe and then connected to the patch-clamp amplifier. The clamping voltage and data recording were controlled and recorded by pClamp software via a computer, with a sampling frequency of 10 kHz and a filtering frequency of 2 kHz. After obtaining the whole-cell recording, cells were clamped at -100 mV. The hERG potassium current (IhERG) was evoked by applying a 2 s depolarizing voltage step from -100 mV to +20 mV, followed by repolarization to -50 mV for 1 s before returning to -100 mV. […]
Data were analyzed and processed using pClamp, GraphPad Prism 8 and Excel software. […]

[2] = Dog pharmacokinetics, oral gavage (Experiment 3); type: in vivo; settings: Beagle dogs, oral gavage 2.5 mg/kg, plasma
Description: Healthy Beagle dogs, male, weighing about 8-10 kg, 3 animals per group.
The animals were not fasted and had free access to water.
Venous blood (0.5-0.8 mL) was collected at 15 minutes, 30 minutes, 1 hour, 2 hours, 4 hours, 8 hours, and 24 hours after oral gavage administration, placed in K2EDTA tubes, and centrifuged at 4°C to separate plasma. The concentration of the compound in plasma was determined by liquid chromatography-tandem mass spectrometry.
The main pharmacokinetic parameters were calculated using WinNonlin. […] Table 8. Pharmacokinetic parameters of some compounds of the present disclosure administered orally to dogs

[3] = system: IL-6 secretion; test: Inhibition of induced IL-6 secretion in human PBMCs (CBA); type: cell-based; settings: PBMC
Description: (§1) The effect of PROTAC small molecules on inflammatory factors in PBMCs downstream of IRAK4 induced by TLR and IL-1 was detected based on the CBA (cytometric bead array) method.
(§2) Step 2: The density of PBMCs was adjusted to 1 E6/mL, and 150 µL of PBMCs in 1640 complete medium were seeded into a 96-well plate, followed by incubation at 37°C for 1 hour.
(§3) Step 3: 50 µL of serially diluted small molecule (working concentration: 10000 nM, 1:3 dilution) drugs were inoculated into the plate in a 37°C incubator for 8 hours.
(§4) Step 4: 10 µL of stimulants were added respectively, with final concentrations of 100 ng/mL for LPS, 1 µg/mL for R848, and 100 ng/mL for IL-1β.
(§5) Step 5: CBA assay. The concentrations of IL-6 and TNF-α in the cell culture supernatant were determined using Hu IL-6 CBA Flex Set A7 and Hu TNF- CBA Flex Set D9.
(§6) Step 6: Standard samples were prepared: 2500 pg/mL, 1250 pg/mL,...0. A 1:2 serial dilution was performed to obtain 10 concentrations.
(§7) Step 7: The mixed capture beads were resuspended in capture bead diluent (1:50), and cell culture supernatant (50 µL) was added, followed by incubation at room temperature for 10 minutes.
(§8) Step 8: The detection reagent prepared with detection diluent was added, and the mixture was incubated in the dark at room temperature for 3 hours. At the end of incubation, the samples were washed once with wash buffer and resuspended for detection.
(§9) The concentrations of IL-6 and TNFα were calculated using the standard curve method. Data presentation and IC50 calculation were performed using Prism 8.0.2.

[4] = system: TNFα secretion; test: Inhibition of induced TNFα secretion in human PBMCs (CBA); type: cell-based; settings: PBMC
Description: as §1, §2, §3, §4, §5, §6, §7, §8, §9

[5] = mice, 8 hours after last administration
Description: Experimental animals: SPF-grade male C57BL/6J mice aged 6-8 weeks.
Preparation of compound: 10% DMSO + 50% PEG400 + 40% sterile water for injection. The compound was dissolved in DMSO, followed by the addition of PEG400 and sterile water for injection, and the solution was adjusted to clarity with 6N hydrochloric acid.
Compound administration and IL-33 inflammatory induction: The mice were randomly grouped according to body weight and orally administered with the compound at final doses of 15 mg/kg, 50 mg/kg, and 150 mg/kg, twice daily. At 4 hours after the last administration of the compound, the mice were intraperitoneally injected with 1 µg/100 µL PBS of IL-33 for inflammatory induction.
Termination, sample collection, and data: Plasma, peritoneal lavage fluid, and spleen were collected for subsequent sample index detection.
The experiment was terminated 8 hours after the last administration. The mice were anesthetized, and cardiac blood was collected. The blood samples were anticoagulated with EDTA-K2, centrifuged at 3500 rpm for 15 minutes, and the upper plasma was collected.

[6] = biological target: T1, IRAK4 (Homo sapiens, UniProt Q9NWZ3); test: Degradation of IRAK4 in SU-DHL-2 cells (flow cytometry); type: cell-based; set-up: The degradation level of IRAK4 protein in SU-DHL-2 cell line by the compounds was detected by flow cytometry; endogenous in cells; host or cells: SU-DHL-2; OCI-LY3; settings: SU-DHL-2 cells, 24 hours incubation; read-out: SU-DHL-2 DC50
T1 sequence (Q9NWZ3 1-460): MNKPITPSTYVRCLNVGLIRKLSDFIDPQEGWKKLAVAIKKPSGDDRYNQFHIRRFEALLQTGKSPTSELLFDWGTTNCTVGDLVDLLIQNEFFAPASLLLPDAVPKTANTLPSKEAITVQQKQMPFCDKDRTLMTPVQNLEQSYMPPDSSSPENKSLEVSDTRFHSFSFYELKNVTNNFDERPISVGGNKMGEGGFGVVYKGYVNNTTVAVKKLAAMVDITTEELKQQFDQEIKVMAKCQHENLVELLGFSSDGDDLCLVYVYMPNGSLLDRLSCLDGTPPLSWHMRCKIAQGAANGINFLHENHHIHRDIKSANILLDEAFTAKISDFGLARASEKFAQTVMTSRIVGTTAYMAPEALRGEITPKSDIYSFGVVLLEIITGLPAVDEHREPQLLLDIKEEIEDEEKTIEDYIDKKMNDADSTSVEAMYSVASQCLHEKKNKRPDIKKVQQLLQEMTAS
Description: The degradation level of IRAK4 protein in SU-DHL-2 cell line by the compounds was detected by flow cytometry.
Step 2: On day 1, the cells were seeded at a density of 2 × 10^5 cells per well in 100 µL in a 96-well plate. The compounds were dissolved in DMSO to a final concentration of 10 mM, and then diluted with culture medium at a 1:5 concentration gradient to prepare 10 concentrations. The diluted solutions were added to the cells to obtain a maximum final concentration of 2 µM. Wells containing cells treated with 0.1% DMSO served as the […] The cells were incubated at 37°C in a 5% CO2 incubator for 24 hours.
Step 3: After centrifugation, the cells were washed with FACS buffer. The cells were stained for viability discrimination using the LIVE/DEAD™ Fixable Blue Dead Cell Stain Kit, and surface staining of monocytes was performed with PE Mouse Anti-Human CD14, followed by incubation at 4°C for 30 minutes.
Step 4: After centrifugation, the cells were washed with FACS buffer. Fix buffer I, equal in volume to the cultured cells, was added, and the cells were fixed at 37°C for 10 minutes.
Step 5: After centrifugation, the cells were washed with FACS buffer. 150 µL of Perm III reagent was added, and the cells were incubated at 4°C for 30 minutes to permeabilize the membranes. After centrifugation, the cells were washed with FACS buffer.
(§10) Flow cytometry analysis was performed using a flow cytometer.
The flow cytometry data were analyzed using Flowjo software. Data presentation and DC50 (half-maximal degradation concentration) calculation were performed using Prism 8.0.2 (GraphPad).

[7] = biological target: T1, IRAK4; test: Degradation of IRAK4 in monocytes of human PBMCs (flow cytometry); type: cell-based; set-up: endogenous in cells; settings: human PBMC monocytes, 24 hours incubation
Description: The degradation level of IRAK4 in monocytes of human peripheral blood mononuclear cells (hPBMCs) was detected by flow cytometry.
On day 1, the cells were seeded at a density of 2 × 10^5 cells per well in 100 µL in a 96-well plate.
The compounds were dissolved in DMSO to a final concentration of 10 mM, and then diluted with culture medium at a 1:5 concentration gradient to prepare 10 concentrations. The diluted solutions were added to the cells to obtain a maximum final concentration of 2 µM. Wells containing cells treated with 0.1% DMSO served as the positive control
The cells were incubated at 37°C in a 5% CO2 incubator for 24 hours.
The cells were stained for viability discrimination using the LIVE/DEAD™ Fixable Blue Dead Cell Stain Kit, and surface staining of monocytes was performed with PE Mouse Anti-Human CD14, followed by incubation at 4°C for 30 minutes.
Fix buffer I, equal in volume to the cultured cells, was added, and the cells were fixed at 37°C for 10 minutes.
150 µL of Perm III reagent was added, and the cells were incubated at 4°C for 30 minutes to permeabilize the membranes.
as §10
The flow cytometry data were analyzed using Flowjo software. Data presentation and DC50 calculation were performed using Prism 8.0.2 (GraphPad).

Sequence of hERG potassium channel (Q12809 whole entry): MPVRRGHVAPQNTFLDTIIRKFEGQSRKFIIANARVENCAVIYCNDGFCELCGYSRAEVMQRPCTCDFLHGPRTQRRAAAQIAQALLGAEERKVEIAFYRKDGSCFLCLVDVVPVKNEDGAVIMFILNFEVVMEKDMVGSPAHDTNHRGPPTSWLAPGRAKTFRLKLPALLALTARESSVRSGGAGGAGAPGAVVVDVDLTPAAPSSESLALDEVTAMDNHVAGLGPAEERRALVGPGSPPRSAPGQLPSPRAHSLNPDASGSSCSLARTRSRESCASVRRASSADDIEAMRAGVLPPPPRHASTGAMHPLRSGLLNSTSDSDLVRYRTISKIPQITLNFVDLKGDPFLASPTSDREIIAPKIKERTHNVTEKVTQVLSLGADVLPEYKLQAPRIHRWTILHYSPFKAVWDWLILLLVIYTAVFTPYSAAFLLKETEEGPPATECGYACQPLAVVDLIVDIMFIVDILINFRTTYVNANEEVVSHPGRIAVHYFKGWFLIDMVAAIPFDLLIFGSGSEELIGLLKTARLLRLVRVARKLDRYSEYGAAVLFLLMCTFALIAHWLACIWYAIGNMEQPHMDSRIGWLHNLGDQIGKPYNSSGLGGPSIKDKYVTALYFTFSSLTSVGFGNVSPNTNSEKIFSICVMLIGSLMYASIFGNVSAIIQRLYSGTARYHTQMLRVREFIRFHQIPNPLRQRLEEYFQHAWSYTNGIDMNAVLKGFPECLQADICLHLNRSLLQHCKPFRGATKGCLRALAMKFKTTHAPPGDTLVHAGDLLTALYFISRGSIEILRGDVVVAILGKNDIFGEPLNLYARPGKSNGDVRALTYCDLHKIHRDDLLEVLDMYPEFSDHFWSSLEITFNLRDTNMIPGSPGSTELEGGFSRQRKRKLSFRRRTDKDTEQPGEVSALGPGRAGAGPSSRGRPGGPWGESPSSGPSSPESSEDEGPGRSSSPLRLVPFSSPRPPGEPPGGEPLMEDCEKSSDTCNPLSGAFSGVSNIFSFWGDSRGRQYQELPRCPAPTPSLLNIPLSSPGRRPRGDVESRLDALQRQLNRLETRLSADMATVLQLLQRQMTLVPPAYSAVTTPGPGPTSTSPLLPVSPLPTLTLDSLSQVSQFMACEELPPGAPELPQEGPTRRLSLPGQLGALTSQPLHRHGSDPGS

SMILES | hERG (inhibition%) [1] [% @ 1 µM] | AUC(0-t) at 24 h [2] [µg·h/mL] | Cmax [2] [µg/mL] | MRT inf [2] [h] | half-life [2] [h] | IC50 ([3]; IL-1β 100 ng/mL, read-out: IC50 of compounds against induced secretion, IL-6, IL-1β) [µM] | IC50 ([3]; LPS 100 ng/mL, read-out: IC50 of compounds against induced secretion, IL-6, LPS) [µM] | IC50 ([3]; R848 1 µg/mL, read-out: IC50 of compounds against induced secretion, IL-6, R848) [µM] | IC50 ([4]; IL-1β 100 ng/mL, read-out: IC50, TNFα secretion induced by IL-1β) [µM] | IC50 ([4]; LPS 100 ng/mL, read-out: IC50, TNFα secretion induced by LPS) [µM] | IC50 ([4]; R848 1 µg/mL, read-out: IC50, TNFα secretion induced by R848) [µM] | C8hr Plasma ([5]; PO 15 mpk twice daily) [µg/mL] | C8hr Spleen ([5]; PO 15 mpk twice daily) [µg/mL] | C8hr Plasma ([5]; PO 50 mpk twice daily) [µg/mL] | C8hr Spleen ([5]; PO 50 mpk twice daily) [µg/mL] | C8hr Plasma ([5]; PO 150 mpk twice daily) [µg/mL] | C8hr Spleen ([5]; PO 150 mpk twice daily) [µg/mL] | DC50 [6] [µM] | DC50 [7] [µM]
Cn1c(=O)n(C2CCC(=O)NC2=O)c2cccc(C#CCOC3CCN(C[C@H]4CC[C@H](n5cc(NC(=O)c6cnn7ccc(N8C[C@H]9C[C@@H]8CO9)nc67)c(C(F)F)n5)CC4)CC3)c21 (stereo partly shown) [KT-474, reference compound] | 47 | 0.38 | 0.031 | 10.3 | 6.7 | 0.018 | 0.041 | 0.014 | 0.013 | 0.031 | 0.052 | 0.1 | 0.896 | 0.262 | 1.74 | 0.578 | 7.262 | – | –
Cn1c(=O)n(C2CCC(=O)NC2=O)c2cccc(C#CC(C)(C)N3CCC(C(=O)N4CCC5(CC4)CC(n4cc(NC(=O)c6cnn7ccc(N8C[C@H]9C[C@@H]8CO9)nc67)c(C(F)F)n4)C5)CC3)c21 (stereo partly shown) [Example 56] | – | – | – | – | – | – | – | – | – | – | – | – | – | – | – | – | – | 0.005 | 0.0011
